Assay [1] relates to rabbit ASM tissues. As to the kind of experiment: Constrictor responsiveness to acetylcholine (ACh) in isolated rabbit ASM tissues, isometric tension in organ bath. The following applies: for effect of pretreatment on PGE2-induced increase in constrictor responsiveness to ACh: PGE2 100 nM x 24 hr; for effect of pretreatment on salmeterol-induced increase in constrictor responsiveness to ACh: salmeterol 10 μM x 24 hr. An excerpt: (§1) Detection of PDE4D5 mRNA transcripts: Total RNA was extracted from the cultured ASM cells using the TRIzol method (Invitrogen), and cDNAs were isolated by RT-PCR using the SuperScript First Strand Synthesis System kit from Invitrogen, with the following oligonucleotide primer sets (Integrated DNA Technologies): for PDE4D5, 5′-[…]-3′ (forward; SEQ ID NO: 2) and 5′-[…]-3′ (reverse; SEQ ID NO: 3); and for β-actin, 5′-[…]-3′ (forward; SEQ ID NO: 4) and 5′-[…]-3′ (reverse; SEQ ID NO: 5). The reaction volume was 20 μl and cycling conditions used were 35 cycles of 30 sec denaturation at 95° C., followed by 30 sec annealing at 60° C. and elongation at 72° C. for 30 sec. Ex-Tag (Takara Biotechnology) was used as DNA polymerase. […] Following protein extraction and the addition of gel-loading buffer, the extracts were loaded on a 10% SDS-PAGE gel for immunoblotting after transfer to a PVDF membrane. The membranes were then incubated overnight with monoclonal mouse anti-human primary antibodies directed against phospho-CREB and -ATF1, phospho-ERK1/2, or α-actin, and levels were detected by ECL after a 1-hr incubation with a 1:2,000 dilution of HRP-conjugated rabbit anti-mouse secondary antibody, followed by exposure to autoradiography film. The protein band intensities were quantified by densitometry. siRNA-mediated knockdown of PKA: ASM cells were seeded into 6-well plates and, at ˜40% confluency, the medium was replaced with the reduced serum-containing medium, Opti-MEM (Invitrogen). The cells were then transfected twice during a 24-hr interval with two pools of three siRNA duplexes, each pool targeted against the human PKAα or PKAγ catalytic subunits (Santa Cruz Biotechnology; sc-36240 and sc-36236, respectively), or with a non-targeted control (scrambled) siRNA duplex, using Oligofectamine (Invitrogen) as the transfection agent. The pools of siRNAs were applied to each well at a final concentration of 100 nM for each siRNA preparation. […] Transfection of ASM cells with adeno-βARK-ct: Adenovirus (adeno)-βARK-ct, an adenovirus vector encoding the βARK1 carboxyl-terminal domain which blocks Gβγ signaling (25,26), and adeno-β-gal, an adenovirus vector expressing lacZ as a negative control, were constructed using the AdenoX adenovirus construction kit (BD-Clontech). Recombinant plaques were isolated and propagated in HEK293 cells (Invitrogen), with viral purification using the cesium chloride gradient method, and viral titer detected by plaque assay. The ASM cells were transfected with either of the adenoviral vectors at a multiplicity of infection (MOI) of 100, and experiments were conducted at 24 hr following adenoviral tranfections. Pharmacodynamic studies of constrictor and relaxation responsiveness in rabbit ASM tissues: Following initial sedation and subsequent general anesthesia with intramuscular injections of xylazine (10 mg/kg) and ketamine (50 mg/kg), respectively, rabbits were sacrificed with an intravenously administered overdose of sodium pentobarbital (100 mg/kg). As described previously (16), the tracheae were excised via open thoracotomy, the loose connective tissue and epithelium were scraped and removed, and the tracheae were divided into 8 ring segments, each of 6-8 mm in length. […] After these incubations, the tissues were placed in organ baths containing modified Krebs-Ringer solution aerated with 5% CO2 in oxygen (pH of 7.35-7.40), and attached to force transducers to continuously monitor isometric tension. […] The constrictor and relaxation dose-response curves were analyzed with respect to each tissue's maximal isometric contractile force (Tmax) to ACh and maximal relaxation response (Rmax) to isoproterenol from the initial level of active cholinergic contraction. Statistical analyses: Results are expressed as mean±SE values. Comparisons between groups were made using the Student's t-test (two-tailed) or ANOVA with Tukey's post-test analysis, where appropriate.

Assay [2] has as its system OVA-sensitized rabbits. As to the kind of experiment: In vivo bronchoconstrictor responses to methacholine (Rrs) in OVA-sensitized, OVA-challenged rabbits. More on the design: species or system rabbit. The following applies: 1 mg/Kg by nebulizer 2 hr prior to OVA challenge, measured 24 hr after challenge. The procedure:
Both the OVA sensitized and control animals were then challenged with either vehicle (saline) or aerosolized OVA delivered via a nebulizer. The following day, while mechanically ventilated under general anesthesia/paralysis, the rabbits' broncho-constrictor responses to intravenous (i.v.) bolus injections of cumulatively increasing doses of methacholine (MCh) were determined and induced changes in respiratory system resistance (Rrs), measured as previously described (Grunstein et al. J. Appl. Physiol: […]. Environ. Exercise Physiol. 57:1238-1246, 1984). Lung lavage was then performed to obtain bronchoalveolar lavage fluid (BALF) samples, and the lungs were excised for histological examination in H&E-stained paraffin-embedded 4 micron sections.

The subject of assay [3] is rabbit ASM tissues. Briefly: Relaxation responsiveness to isoproterenol in isolated rabbit ASM tissues half-maximally contracted with ACh. The following applies: for effect of pretreatment on PGE2-induced impaired relaxation to isoproterenol: PGE2 100 nM x 24 hr; for relaxation responses to isoproterenol in control serum-exposed tissues pretreated with the agent: control (non-asthmatic) serum, 24 hr; for effect of pretreatment on salmeterol-induced impaired relaxation to isoproterenol: salmeterol 10 μM x 24 hr.
From the text: as §1

Assay [4] deals with OVA-sensitized rabbits. Briefly: Allergic conjunctivitis response to ocular OVA challenge in OVA-sensitized rabbits. The format is in vivo, rabbit. The settings on record: 15 μl of 1 μM topically 20 minutes prior to OVA, examined at 60 minutes. The procedure:
Similar to previous studies investigating either allergic asthma or allergic conjunctivitis in animal models, in vivo studies were conducted wherein adult NZW rabbits were initially systemically immunized with weekly intra-peritoneal (i.p.) injections of 2.5 mg ovalbumin (OVA) and 10 mg of alum adjuvant for 4-5 weeks. Following sensitization, as previously described in other animal models of allergic conjunctivitis (Groneberg D. A. et al. Allergy 58: 1101-1113, 2003), the OVA allergen was topically introduced into the conjunctival sac of the eyes of the rabbit to examine its ocular allergic inflammatory response. […] Accordingly, for each animal, 15 μl of a sterile 1 μM concentration of the MPS:anti-Gβγ peptide (prepared in PBS) was topically applied into the conjunctival sac of one eye 20 minutes prior to subsequent instillation of OVA (500 μg in 15 μl PBS), and the carrier MPS peptide alone (i.e., control “sham” pretreatment) was applied to the other eye 20 minutes prior to subsequent instillation of OVA. The eyes were then clinically examined for an acute ocular inflammatory response to OVA challenge and photographs were taken of each eye at 60 minutes following OVA challenge. […]

Where [5] appears, read: listed as Gβγ inhibitory peptide.
Where [6] appears, read: listed as anti-Gβγ cell-permeable inhibitory peptide.
Where [7] appears, read: listed as MPS-conjugated anti-Gβγ peptide.
Setting [8] is: vehicle-exposed control tissues.

Ends that are not written are not given here.

Take “MPS-Phosducin-like protein C terminus (AAVALLPAVLLALLAVTDQLGEDFFAVDLEAFLQEFGLLPEKE; also: MPS attached) [anti-Gβγ peptide]”: the “effect of pretreatment on PGE2-induced increase in constrictor responsiveness to ACh” value in assay [1] (setting [5]) was “prevents”; in assay [1] (setting [6]), “prevented”. The “effect of pretreatment on salmeterol-induced increase in constrictor responsiveness to ACh” value in assay [1] is given as “prevented”; in assay [1] (setting [7]), “ablated”. The “effect of the agent alone on constrictor responses to ACh” value in assay [1] (setting [8]) was “no significant effect”. For the same substance, the “effect on airway constrictor hyper-responsiveness (Rrs responses to MCh)” value in assay [2] is listed as “largely abrogated”; in assay [2] (listed as MPS-conjugated anti-G βγ peptide), “prevented to a similar degree”. Besides, the “effect of pretreatment on PGE2-induced impaired relaxation to isoproterenol” value is “prevents” in assay [3] (setting [5]) and “prevented” in assay [3] (setting [6]). Besides, the entries for the “relaxation responses to isoproterenol in control serum-exposed tissues pretreated with the agent” value in assay [3] (setting [5]) and in assay [3] (listed as Gβγ-inhibitory peptide) were “enhances” and “somewhat increased”, respectively. Further, the “effect of pretreatment on salmeterol-induced impaired relaxation to isoproterenol” value in assay [3] was “prevented”; in assay [3] (setting [7]), “ablated”. Moreover, in assay [3] (tissues passively sensitized 24 hr with AS rabbit serum), the “effect of pretreatment on impaired relaxation to isoproterenol in allergic asthmatic (AS) serum-exposed tissues” value is “prevented”. For the same substance, in assay [3] (setting [8]), the “effect of the agent alone on relaxation responses to isoproterenol” value is on record as “no significant effect”. Further, the “clinical signs of allergic conjunctivitis after ocular OVA challenge” value in assay [4] is “virtually no clinical signs of conjunctival inflammation”; in assay [4] (setting [7]), “signs of allergic conjunctivitis are absent”.
